Measured values published in patent publication US20110076283A1, “METHOD FOR PREDICTING AND DIAGNOSING BRAIN TUMOR” (Universite De Lausanne, priority 2008, published 2011).

Key:
[1] = system: glioblastoma; test: Multivariate Cox proportional hazards model of the treatment effect on survival (chemoradiotherapy versus radiotherapy alone) in glioblastoma patients; format: in vivo, human; conditions: MGMT-methylated patients, multivariate Cox model N = 68
Experimental: Gene expression profiles were established from 80 frozen GBM samples obtained from 76 patients, comprising 70 tumors from initial surgery, and 10 samples resected at recurrence, and from four non-neoplastic brain tissue samples. All patients were treated within a phase II, or a randomized phase III trial {Stupp, 2005 #2126} and provided written informed consent for molecular studies of their tumor. The protocol was approved by the ethics committee at each center. Sixty-eight patients with complete molecular and clinical information were included in survival analysis, with a median age of 51 years (range: 26-70 yrs) at enrollment. Thereof, 42 received TMZ/RT→TMZ, while 26 were randomized to RT only. Second-line therapy frequently involved alkylating agents including TMZ. The validation set comprised 76 independent patients of the EORTC/NCIC-study (Stupp et al., 2005), 39 randomized to TMZ/RT→TMZ, and 37 to RT (median age 54 yrs, range 25-69 yrs), whose GBM were available on a tissue microarray. There was no difference in survival as compared to the general trial population, neither in the test population, nor the validation set (P>0.2).
For each covariate, the hazards ratio, its 95% confidence interval and the associated Wald p-value were examined The Benjamini Hochberg procedure ^s was applied as multiple testing correction method to convert p-values into estimated false discovery rates (FDR). The hazards ratio for a gene (or the mean of a cluster) were standardized by referring them to a variation corresponding to an interquartile range, in order to obtain an interpretable value, for microarray as well as for real-time PCR data. Therefore, the interpretation of an estimated hazard ratio of 1.5 is that the hazard rate increases by 50 percent for an increase of one interquartile range of the log-scale gene expression, independently of the expression level at which it is calculated.
The log-hazard function was defined as:
g(t,X,TMZ,MGMT,age,β)=ln [h0(t)]+β1X+β2TMZ+β3MGMT+β4age+β5(X*TMZ)+β6(TMZ*MGMT) […]

[2] = system: glioblastoma; conditions: glioblastoma patients; in particular with epigenetically silenced MGMT gene; cited from earlier work
[3] = system: glioblastoma; conditions: in conjunction with TMZ/RT→TMZ; patients with a methylated MGMT gene promoter; cited from earlier work

Compound: Cn1nnc2c(C(N)=O)ncn2c1=O [TMZ/RT→TMZ, temozolomide]
- Estimated Hazard Ratios (HR) for Treatment Effect ([1]; G98 expression level 1st quartile): 0.13
- Estimated Hazard Ratios (HR) for Treatment Effect ([1]; G98 expression level 3rd quartile): 0.47
- Estimated Hazard Ratios (HR) for Treatment Effect ([1]; G98 expression level median): 0.25
- survival [2]: significantly prolong survival

Compound: CC(C)[C@H]1C(=O)N[C@@H](CCCN=C(N)N)C(=O)NCC(=O)N[C@@H](CC(=O)O)C(=O)N[C@H](Cc2ccccc2)C(=O)N1C [cilengitide]
- anti-tumor activity [3]: increased anti-tumor activity
